{
  "source": "patent US7262164B2",
  "about": "“Polymeric thiol-linked prodrugs employing benzyl elimination systems” (Enzon, Inc., priority 2001, dated 2007)",
  "key": {"P388/0 cell lines": {"tested_on": "P388/0 cell lines", "experiment": "Cytotoxicity assay, Alamar Blue cell growth", "assay_type": "cell-based", "settings": "Mus musculus, 72 h, P388/0 cells, 3 days", "experimental": "Cell Lines and Cytotoxicity Assays. Studies using P388/0 cell lines for IC50 (drug concentration inhibiting growth of cells by 50%) were maintained and conducted as previously reported. Briefly, for IC50 determination, cells were seeded into the microwell plates at a density of 2×10^3 cells per 50 μL per well. Plates were incubated at 37° C. in a humidified incubator with 5% CO2 for 3 days. Cell growth was measured by the addition of 10 μL/well of Alamar Blue (Alamar Biosciences, Inc., Sacramento, Calif.) and the plates were incubated a further 4 hours at 37° C. The IC50values for each compound were determined from absorbance versus dilution factor plots. All cell cultures for animal implantation were maintained at 37° C. in a humidified atmosphere of 5% CO2/[…] and subcultured once a week. All cell lines were periodically tested for Mycoplasma and were Mycoplasma free."}, "[1]": {"tested_on": "Lung M109 syngeneic solid tumors", "experiment": "In vivo M109 tumor model", "design": "species or system Balb/C mice", "settings": "i.v. day 1 & 4; for T/C (%) at Day 18: control median tumor volume approx. 1000 mm^3; for T/C (%) at Day 25: control median tumor volume approx. 2000 mm^3", "experimental": "M109 cells (NCI), derived from donor mice, were grown and expanded in tissue culture for in vivo implantation. Cells were grown in EMEM with 10% FBS and 1% streptomycin/penicillin media, kept in an incubator at 37° C. with 5% CO2and split twice a week. Cells were trypsinized, harvested, washed, counted and prepared in PBS for transport to the vivarium. Cells were kept on ice until implantation was conducted with minimum lag time. A cell suspension of approximately 5×10^6 cells/mL was used. Balb/C mice were implanted subcutaneous with 100 μL of the above cell suspension (Day 0). Treatments were administered intravenously on Day 1 and Day 4. Compound doses were based on the content of 6-MP. Body weight and tumor volume were then measured twice weekly until the group's median tumor volume exceeded 2000 mm^3. The tumor volume for each mouse was determined by measuring two dimensions with calipers and calculated using the formula: tumor volume=(length×width^2)/2. Drug effects were determined by comparing tumor growth in treated versus control (no vehicle) mice. Two types of endpoints were used as the basis for comparison: (a) the percent difference in tumor volume (% T/C), measured when the control group's median tumor volume reached approximately 800-1100 mm^3 (exponential growth phase) and (b) again when the control group's median tumor volume was approximately 2000 mm^3."}, "Solubility in water": {"experiment": "Solubility in water", "assay_type": "physicochemical"}, "[2]": {"tested_on": "murine leukemia cell line L1210/O", "experiment": "In vivo L1210 tumor model (ascites)", "design": "species or system mouse", "settings": "Q2d×6, IP, intralipid", "text": "6-MP and pro-drug forms of 6-MP were screened for in vivo activity against the murine leukemia cell line L1210/O (mouse, lymphocytic leukemia). The cell line was obtained from Southern Research Institute (Birmingham, Ala.) and grown in DMEM supplemented with 10% horse serum. L 1210/O cells were subcultured two times per week and log phase cultures (viability≧95%) were used for all in vivo experiments. Female CD2F1 mice (Taconic Farms, Germantown, N.Y.) at 7-8 weeks of age were used for study. Following one week of acclimation, mice were implanted i.p. with L1210/0 cells (5×10^5 cells/mouse) at designated day 0. The mice were randomly assigned to experimental groups (8-10/group). The groups included control, 6-MP and PEG-6-MP conjugates. 6-MP was solubilized in 3% DMSO and suspended in intralipid and administered Q2d×6, IP. PEG-6-MP was dissolved in phosphate buffer (pH 5.8) and administered Q4d×3, IV. Control groups received vehicle (intralipid or phosphate buffer). The mice were monitored for up to 40 days, and the treatment was evaluated as percentage of increase in life span (ILS)."}, "[3]": {"settings": "total dose 200 mg/kg (6-MP content)"}},
  "note": "Marks after values point to notes of the source that are not given here.",
  "data": [
    {"compound": "Nc1nc2nc[nH]c2c(=S)[nH]1", "note": "[6-TG (2), 6-thioguanine]", "values": [
      {"measurement": "IC50", "setting": "P388/0 cell lines", "result": 360, "unit": "nM"},
      {"measurement": "T/C (%) at Day 18", "setting": "[1]; total dose 40 mg/kg", "result": 82, "unit": "%"},
      {"measurement": "T/C (%) at Day 25", "setting": "[1]; total dose 40 mg/kg", "result": 78, "unit": "%"}
    ]},
    {"compound": "Sc1ncnc2nc[nH]c12", "note": "[6-MP (1), 6-mercaptopurine]", "values": [
      {"measurement": "solubility", "setting": "Solubility in water", "result": "< 100", "unit": "µg/mL"},
      {"measurement": "Anti-tumor activity, inhibiting the growth of M109 solid tumors (in words)", "setting": "[1]; Balb/C mice", "result": "ineffective"},
      {"measurement": "T/C (%) at Day 18", "setting": "[1]; [3]", "result": 144, "unit": "%"},
      {"measurement": "T/C (%) at Day 25", "setting": "[1]; [3]", "result": 184, "unit": "%"},
      {"measurement": "% ILS (percent increase in life span)", "setting": "[2]; total dose 90 mg/kg", "result": 31.8, "unit": "%"},
      {"measurement": "% ILS (percent increase in life span)", "setting": "[2]; total dose 240 mg/kg", "result": "52.5* %"}
    ]}
  ]
}
